The data set in a line: cn = amount concentration of the nth substance listed, in mol/dm3. The settings on record: 101 kPa, Liquid, c1 = 2.

The structures appear in SMILES notation. “And” between values parts separate entries of the source, which are not always exact repeats. Equal values may be shown once. ± gives the expanded uncertainty stated by the source.

The term viscosity denotes the resistance of a fluid to flow. Turning to `[Cl-].[K+]` [potassium chloride] + O, the viscosity is, setting by setting: (298.15 K) 0.887 ± 0.022 mPa·s; (303.15 K) 0.8552 ± 0.022 mPa·s; (308.15 K) 0.7658 ± 0.02 mPa·s; (313.15 K) 0.6995 ± 0.018 mPa·s; (318.15 K) 0.6492 ± 0.017 mPa·s; (323.15 K) 0.6037 ± 0.016 mPa·s.
As to `O=[N+]([O-])[O-].[K+]` [potassium nitrate] + O, the viscosity is, setting by setting: (298.15 K) 0.9118 ± 0.023 mPa·s; (303.15 K) 0.8404 ± 0.021 mPa·s; (308.15 K) 0.7619 ± 0.02 mPa·s; (313.15 K) 0.6989 ± 0.018 mPa·s; (318.15 K) 0.64 ± 0.017 mPa·s; (323.15 K) 0.5929 ± 0.016 mPa·s and 0.5829 ± 0.016 mPa·s.
